Reference: the supplement of paper PMC10307832

Legend:
Assay in all cases: relative viability (nuclei count vs DMSO), 5 days (fraction); higher = more cells survive
[1] = test system: NCI-H1915
In short: (§1)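 Lung cancer cell lines were pin-tool dosed in 1536-well plates on the day after seeding, with either a lone drug or a fixed anchor-drug dose plus five library-drug doses (not always all listed) in √10 steps. Nuclei were counted on 4× images after 5 days. Relative viability is the ratio of treated-well to vehicle-well nuclei counts, with each value a median of duplicate plates.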

[2] = test system: H3255
In short: as §1

[3] = test system: UMC-11
In short: as §1

[4] = test system: RERF-LC-KJ
In short: as §1

[5] = test system: NCI-H2085
In short: as §1

[6] = test system: NCI-H358
In short: as §1

[7] = test system: NCI-H1666
In short: as §1

[8] = test system: NCI-H1355
In short: as §1

[9] = test system: SK-MES-1
In short: as §1

[10] = test system: NCI-H1651
In short: as §1

[11] = test system: NCI-H838
In short: as §1

[12] = test system: LC-2-ad
In short: as §1

[13] = test system: NCI-H661
In short: as §1

[14] = test system: PC-3 [JPC-3]
In short: as §1

[15] = test system: LK-2
In short: as §1

[16] = test system: ABC-1
In short: as §1

[17] = test system: A-427
In short: as §1

[18] = test system: NCI-H1563
In short: as §1

[19] = test system: NCI-H1792
In short: as §1

[20] = test system: NCI-H2228
In short: as §1

[21] = test system: NCI-H2087
In short: as §1

[22] = test system: NCI-H1395
In short: as §1

[23] = test system: CAL-12T
In short: as §1

[24] = test system: NCI-H322M
In short: as §1

[25] = test system: LCLC-97TM1
In short: as §1

For CCCCCCCCCCCC1=C(O)C(=O)C=C(O)C1=O [Embelin] + CS(=O)(=O)N1CCN(Cc2cc3nc(-c4cccc5[nH]ncc45)nc(N4CCOCC4)c3s2)CC1 [Pictilisib] (partner 1 µM), the relative viability ([1]; first compound 0.08 µM) was 1.06, the relative viability ([1]; first compound 0.8 µM) was 1.08 and the relative viability ([1]; first compound 2.53 µM) was 0.952. For the same molecule, the relative viability ([1]; first compound 8 µM) was 0.919, the relative viability ([2]; first compound 0.08 µM) was 0.574 and the relative viability ([2]; first compound 0.8 µM) was 0.62. The relative viability ([2]; first compound 2.53 µM) was 0.512, the relative viability ([2]; first compound 8 µM) was 0.525 and the relative viability ([3]; first compound 0.08 µM) was 0.852. It also gave a relative viability ([3]; first compound 0.8 µM) of 1, a relative viability ([3]; first compound 2.53 µM) of 1.11 and a relative viability ([3]; first compound 8 µM) of 0.667. It also gave a relative viability ([4]; first compound 0.08 µM) of 0.494, a relative viability ([4]; first compound 0.8 µM) of 0.652 and a relative viability ([4]; first compound 2.53 µM) of 0.618. For the same molecule, the relative viability ([4]; first compound 8 µM) was 0.587, the relative viability ([5]; first compound 0.08 µM) was 0.44 and the relative viability ([5]; first compound 0.8 µM) was 0.404. The relative viability ([5]; first compound 2.53 µM) was 0.44, the relative viability ([5]; first compound 8 µM) was 0.46 and the relative viability ([6]; first compound 0.08 µM) was 0.425. For the same molecule, the relative viability ([6]; first compound 0.8 µM) was 0.39, the relative viability ([6]; first compound 2.53 µM) was 0.315 and the relative viability ([6]; first compound 8 µM) was 0.294. The relative viability ([7]; first compound 0.08 µM) was 0.482, the relative viability ([7]; first compound 0.8 µM) was 0.549 and the relative viability ([7]; first compound 2.53 µM) was 0.365. The relative viability ([7]; first compound 8 µM) was 0.403, the relative viability ([8]; first compound 0.08 µM) was 0.501 and the relative viability ([8]; first compound 0.8 µM) was 0.601. For the same molecule, the relative viability ([8]; first compound 2.53 µM) was 0.4, the relative viability ([8]; first compound 8 µM) was 0.273 and the relative viability ([9]; first compound 0.08 µM) was 0.347. For the same molecule, the relative viability ([9]; first compound 0.8 µM) was 0.421, the relative viability ([9]; first compound 2.53 µM) was 0.35 and the relative viability ([9]; first compound 8 µM) was 0.359. It also gave a relative viability ([10]; first compound 0.08 µM) of 0.577, a relative viability ([10]; first compound 0.8 µM) of 0.647 and a relative viability ([10]; first compound 2.53 µM) of 0.769. The relative viability ([10]; first compound 8 µM) was 0.607, the relative viability ([11]; first compound 0.08 µM) was 0.49 and the relative viability ([11]; first compound 0.8 µM) was 0.573. The relative viability ([11]; first compound 2.53 µM) was 0.43, the relative viability ([11]; first compound 8 µM) was 0.479 and the relative viability ([12]; first compound 0.08 µM) was 0.458. For the same molecule, the relative viability ([12]; first compound 0.8 µM) was 0.566, the relative viability ([12]; first compound 2.53 µM) was 0.618 and the relative viability ([12]; first compound 8 µM) was 0.392. For the same molecule, the relative viability ([13]; first compound 0.08 µM) was 0.41, the relative viability ([13]; first compound 0.8 µM) was 0.44 and the relative viability ([13]; first compound 2.53 µM) was 0.348. The relative viability ([13]; first compound 8 µM) was 0.481, the relative viability ([14]; first compound 0.08 µM) was 0.733 and the relative viability ([14]; first compound 0.8 µM) was 0.759. The relative viability ([14]; first compound 2.53 µM) was 0.787, the relative viability ([14]; first compound 8 µM) was 0.669 and the relative viability ([15]; first compound 0.08 µM) was 0.567. It also gave a relative viability ([15]; first compound 0.8 µM) of 0.578, a relative viability ([15]; first compound 2.53 µM) of 0.63 and a relative viability ([15]; first compound 8 µM) of 0.562. For the same molecule, the relative viability ([16]; first compound 0.08 µM) was 0.876, the relative viability ([16]; first compound 0.8 µM) was 0.861 and the relative viability ([16]; first compound 2.53 µM) was 0.678. For the same molecule, the relative viability ([16]; first compound 8 µM) was 0.646, the relative viability ([17]; first compound 0.08 µM) was 0.857 and the relative viability ([17]; first compound 0.8 µM) was 0.862. The relative viability ([17]; first compound 2.53 µM) was 0.654, the relative viability ([17]; first compound 8 µM) was 0.656 and the relative viability ([18]; first compound 0.08 µM) was 0.661. The relative viability ([18]; first compound 0.8 µM) was 0.786, the relative viability ([18]; first compound 2.53 µM) was 0.517 and the relative viability ([18]; first compound 8 µM) was 0.659. For the same molecule, the relative viability ([19]; first compound 0.08 µM) was 0.299, the relative viability ([19]; first compound 0.8 µM) was 0.37 and the relative viability ([19]; first compound 2.53 µM) was 0.281. It also gave a relative viability ([19]; first compound 8 µM) of 0.333, a relative viability ([20]; first compound 0.08 µM) of 0.476 and a relative viability ([20]; first compound 0.8 µM) of 0.375. It also gave a relative viability ([20]; first compound 2.53 µM) of 0.457, a relative viability ([20]; first compound 8 µM) of 0.366 and a relative viability ([21]; first compound 0.08 µM) of 0.885. It also gave a relative viability ([21]; first compound 0.8 µM) of 0.96, a relative viability ([21]; first compound 2.53 µM) of 1.24 and a relative viability ([21]; first compound 8 µM) of 0.827. The relative viability ([22]; first compound 0.08 µM) was 0.608, the relative viability ([22]; first compound 0.8 µM) was 0.677 and the relative viability ([22]; first compound 2.53 µM) was 0.69. It also gave a relative viability ([22]; first compound 8 µM) of 0.502, a relative viability ([23]; first compound 0.08 µM) of 0.49 and a relative viability ([23]; first compound 0.8 µM) of 0.587. It also gave a relative viability ([23]; first compound 8 µM) of 0.391, a relative viability ([24]; first compound 0.08 µM) of 0.518 and a relative viability ([24]; first compound 0.8 µM) of 0.612. The relative viability ([24]; first compound 2.53 µM) was 0.576, the relative viability ([24]; first compound 8 µM) was 0.478 and the relative viability ([25]; first compound 0.8 µM) was 0.21. For the same molecule, the relative viability ([25]; first compound 2.53 µM) was 0.184 and the relative viability ([25]; first compound 8 µM) was 0.122.
